Where two headings read alike, the source gives them in different places.
Tests used:
S180 sarcoma = conditions: S180 sarcoma; for Body weight of the animals, beginning, First time / Body weight of the animals, end, First time / Inhibition rate, First time / Weight of the tumor X ± SD, First time / Body weight of the animals, beginning, Second time / Body weight of the animals, end, Second time / Inhibition rate, Second time: ip × 10qd; for Inhibition rate (%) S180 sarcomata: comparison table 43, in vivo
NIH3T3 = assay: In vitro cytotoxicity, IC50 by MTT method, NIH3T3; format: cell-based; conditions: Mus musculus; NIH3T3 cell strain; read-out: IC50 NIH3T3
How it was run: (§1)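 MTT viability, 48 h exposure: cells 10^5/ml in RPMI1640 + 10% FBS, 37 °C/5% CO2; MTT 4 h, DMSO solubilisation, A490.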

HepG2 = assay: In vitro cytotoxicity, IC50 by MTT method, HepG2; format: cell-based, human; conditions: Homo sapiens; HepG2 cell strain; read-out: IC50 HepG2
How it was run: as §1

Kunming mice = conditions: for Death rate: single i.p.
PLA-801 = assay: In vitro cytotoxicity, IC50 by MTT method, PLA-801; format: cell-based; conditions: PLA-801 cell strain; read-out: IC50 PLA-801
How it was run: as §1

Lovo = assay: In vitro cytotoxicity, IC50 by MTT method, Lovo; format: cell-based; conditions: Homo sapiens; Lovo cell strain; read-out: IC50 Lovo
How it was run: as §1

Hela = assay: In vitro cytotoxicity, IC50 by MTT method, Hela; format: cell-based; conditions: Homo sapiens; Hela cell strain; read-out: IC50 Hela
How it was run: as §1

Bel-7402 = assay: In vitro cytotoxicity, IC50 by MTT method, Bel-7402; format: cell-based; conditions: Homo sapiens, Bel-7402; Bel7402 cell strain; read-out: IC50 Bel7402
How it was run: as §1

in vivo = conditions: both, Kunming, mouse, ip
BGC-823 = assay: In vitro cytotoxicity, IC50 by MTT method, BGC-823; format: cell-based; conditions: Homo sapiens, BGC-823; BGC823 cell strain; read-out: IC50 BGC823
How it was run: as §1

Lewis lung cancer = conditions: Lewis lung cancer; for Body weight of the animals, end, First time / Body weight of the animals, end, Second time: ip × 10qd; for Inhibition rate (%) Lewis cancer: comparison table 43, in vivo;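 as to all read-outs here: mice implanted subcutaneously in the axilla with Lewis lung tumor cells, treated starting the following day, killed roughly three weeks after implantation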
CT-DNA = assay: DNA thermal denaturation, determination of ΔTm; format: binding; conditions: 20 uM compound, Tm of CT-DNA alone 61° C.
How it was run: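 CT-DNA at 15 ug/ml in PE buffer (1 mM Na2HPO4, 0.1 mM EDTA, pH 7.6), heated at 0.5° C./min from 25 to 95° C. Tm taken as hyperchromic transition mid-point; ΔTm = Tm of drug-DNA complex minus Tm of DNA alone, mean of three runs.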

[1] = 50% male 50% female mice, 240 mg/kg
[2] = 50% male 50% female mice, 300 mg/kg
[3] = CT-DNA 15 ug/ml, PE buffer pH 7.6
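For Death rate in this document: acute toxicity in Kunming mice grouped by sex, one intraperitoneal dose at five graded levels in Tween-80 plus 0.5% CMC-Na, deaths monitored over two weeks.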
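For LD50 in this document: acute toxicity in Kunming mice grouped by sex, one intraperitoneal dose at five graded levels in Tween-80 plus 0.5% CMC-Na, deaths monitored over two weeks.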
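For MTD in this document: acute toxicity in Kunming mice grouped by sex, one intraperitoneal dose at five graded levels in Tween-80 plus 0.5% CMC-Na, deaths monitored over two weeks.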
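For Sex in this document: acute toxicity in Kunming mice grouped by sex, one intraperitoneal dose at five graded levels in Tween-80 plus 0.5% CMC-Na, deaths monitored over two weeks.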

With `OCc1cc2c3ccccc3n(Cc3ccccc3)c2cn1` [Compound 42, 9-benzyl-3-hydroxymethyl-β-carboline] the “Body weight of the animals, beginning, First time” value (S180 sarcoma; Dosage 50 (mg/ml)) was 19.5 g, the “Body weight of the animals, end, First time” value (from here on “Body weight … end, First time”) (S180 sarcoma; Dosage 50 (mg/ml)) was 24.7 g and the “Inhibition rate, First time” value (S180 sarcoma; Dosage 50 (mg/ml)) was 19.10%. The “Weight of the tumor X ± SD, First time” value (S180 sarcoma; Dosage 50 (mg/ml)) was 2.16 ± 0.38 g, the “Body weight of the animals, beginning, Second time” value (S180 sarcoma; Dosage 50 (mg/ml)) was 18.4 g and the “Body weight of the animals, end, Second time” value (shortened to “Body weight … end, Second time”) (S180 sarcoma; Dosage 50 (mg/ml)) was 25.6 g. The “Inhibition rate, Second time” value (S180 sarcoma; Dosage 50 (mg/ml)) was 20.74%, the “Weight of the tumor X ± SD, Second time” value (S180 sarcoma; Dosage 50, ip × 10qd) was 2.14 ± 0.23 g and the “Body weight of the animals, beginning, First time” value (S180 sarcoma; Dosage 100 (mg/ml)) was 19.2 g. The “Body weight … end, First time” value (S180 sarcoma; Dosage 100 (mg/ml)) was 24.3 g, the “Inhibition rate, First time” value (S180 sarcoma; Dosage 100 (mg/ml)) was 28.09% and the “Weight of the tumor X ± SD, First time” value (S180 sarcoma; Dosage 100 (mg/ml)) was 1.92 ± 0.25 g. The “Body weight of the animals, beginning, Second time” value (S180 sarcoma; Dosage 100 (mg/ml)) was 18.9 g, the “Body weight … end, Second time” value (S180 sarcoma; Dosage 100 (mg/ml)) was 25.1 g and the “Inhibition rate, Second time” value (S180 sarcoma; Dosage 100 (mg/ml)) was 25.15%. For the same compound, the “Weight of the tumor X ± SD, Second time” value (S180 sarcoma; Dosage 100, ip × 10qd) was 2.02 ± 0.36 g, the “Inhibition rate (%) S180 sarcomata” value (S180 sarcoma) was 28.09% and the IC50 (NIH3T3) was 90 µM. For the same compound, the IC50 (HepG2) was 90 µM, the Death rate (Kunming mice; [1]) was 50 and the Death rate (Kunming mice; [2]) was 80. For the same compound, the Death rate (Kunming mice; female mice, 240 mg/kg) was 60, the Death rate (Kunming mice; female mice, 300 mg/kg) was 80 and the Death rate (Kunming mice; male mice, 240 mg/kg) was 40. The Death rate (Kunming mice; male mice, 300 mg/kg) was 80, the LD50 (Kunming mice; mouse, in vivo, ip) was 214 to 286 mg/kg and the IC50 (PLA-801) was 160 µM. For the same compound, the IC50 (Lovo) was 100 µM, the IC50 (Hela) was 120 µM and the IC50 (Bel-7402) was 110 µM. For the same compound, the LD50 at 2 weeks (in vivo) was 247 mg/kg, the IC50 (BGC-823) was 110 µM and the “Body weight … end, First time” value (Lewis lung cancer; Dosage 50 (mg/ml)) was 24.7 g. The “Body weight … end, Second time” value (Lewis lung cancer; Dosage 50 (mg/ml)) was 24.7 g, the “Body weight of the animals, beginning, First time” value (Lewis lung cancer; Dosage 50, ip × 10qd) was 20.0 g and the “Inhibition rate, First time” value (Lewis lung cancer; Dosage 50, ip × 10qd) was 22.22%. The “Weight of the tumor X ± SD, First time” value (Lewis lung cancer; Dosage 50, ip × 10qd) was 2.14 ± 0.26 g, the “Body weight of the animals, beginning, Second time” value (Lewis lung cancer; Dosage 50, ip × 10qd) was 19.1 g and the “Inhibition rate, Second time” value (Lewis lung cancer; Dosage 50, ip × 10qd) was 26.96%. For the same compound, the “Weight of the tumor X ± SD, Second time” value (Lewis lung cancer; Dosage 50, ip × 10qd) was 1.89 ± 0.14 g, the “Body weight … end, First time” value (Lewis lung cancer; Dosage 100 (mg/ml)) was 25.1 g and the “Body weight … end, Second time” value (Lewis lung cancer; Dosage 100 (mg/ml)) was 25.1 g. For the same compound, the “Body weight of the animals, beginning, First time” value (Lewis lung cancer; Dosage 100, ip × 10qd) was 20.3 g, the “Inhibition rate, First time” value (Lewis lung cancer; Dosage 100, ip × 10qd) was 33.33% and the “Weight of the tumor X ± SD, First time” value (Lewis lung cancer; Dosage 100, ip × 10qd) was 1.62 ± 0.12 g. For the same compound, the “Body weight of the animals, beginning, Second time” value (Lewis lung cancer; Dosage 100, ip × 10qd) was 18.9 g, the “Inhibition rate, Second time” value (Lewis lung cancer; Dosage 100, ip × 10qd) was 34.47% and the “Weight of the tumor X ± SD, Second time” value (Lewis lung cancer; Dosage 100, ip × 10qd) was 1.92 ± 0.26 g. The “Inhibition rate (%) Lewis cancer” value (Lewis lung cancer) was 34.47%, the ΔTm (CT-DNA; [3]) was −0.3 °C and the ΔTm (CT-DNA; CT-DNA thermal denaturation) was −0.3 °C.
With `c1ccc(Cn2c3ccccc3c3ccncc32)cc1` [Compound 84, 9-Benzyl-β-carboline] the “Body weight of the animals, beginning, First time” value (S180 sarcoma; Dosage 50 (mg/ml)) was 19.6 g, the “Body weight … end, First time” value (S180 sarcoma; Dosage 50 (mg/ml)) was 26.8 g and the “Inhibition rate, First time” value (S180 sarcoma; Dosage 50 (mg/ml)) was 29.47%. For the same compound, the “Weight of the tumor X ± SD, First time” value (S180 sarcoma; Dosage 50 (mg/ml)) was 2.01 ± 0.24 g, the “Body weight of the animals, beginning, Second time” value (S180 sarcoma; Dosage 50 (mg/ml)) was 20.4 g and the “Body weight … end, Second time” value (S180 sarcoma; Dosage 50 (mg/ml)) was 25.4 g. For the same compound, the “Inhibition rate, Second time” value (S180 sarcoma; Dosage 50 (mg/ml)) was 31.23%, the “Weight of the tumor X ± SD, Second time” value (S180 sarcoma; Dosage 50, ip × 10qd) was 1.96 ± 0.16 g and the “Body weight of the animals, beginning, First time” value (S180 sarcoma; Dosage 100 (mg/ml)) was 19.7 g. For the same compound, the “Body weight … end, First time” value (S180 sarcoma; Dosage 100 (mg/ml)) was 26.4 g, the “Inhibition rate, First time” value (S180 sarcoma; Dosage 100 (mg/ml)) was 37.19% and the “Weight of the tumor X ± SD, First time” value (S180 sarcoma; Dosage 100 (mg/ml)) was 1.79 ± 0.27 g. For the same compound, the “Body weight of the animals, beginning, Second time” value (S180 sarcoma; Dosage 100 (mg/ml)) was 20.2 g, the “Body weight … end, Second time” value (S180 sarcoma; Dosage 100 (mg/ml)) was 25.0 g and the “Inhibition rate, Second time” value (S180 sarcoma; Dosage 100 (mg/ml)) was 37.19%. For the same compound, the “Weight of the tumor X ± SD, Second time” value (S180 sarcoma; Dosage 100, ip × 10qd) was 1.79 ± 0.16 g, the “Inhibition rate (%) S180 sarcomata” value (S180 sarcoma) was 37.19% and the IC50 (NIH3T3) was 110 µM. The IC50 (HepG2) was 110 µM, the Death rate (Kunming mice; [1]) was 0 and the Death rate (Kunming mice; [2]) was 30. It also gave a Sex (Kunming mice; both, Kunming, mouse, in vivo, ip, 2 weeks) of 240, a Death rate (Kunming mice; female mice, 240 mg/kg) of 0 and a Death rate (Kunming mice; female mice, 300 mg/kg) of 40. For the same compound, the Death rate (Kunming mice; male mice, 240 mg/kg) was 0, the Death rate (Kunming mice; male mice, 300 mg/kg) was 20 and the IC50 (PLA-801) was 120 µM. For the same compound, the IC50 (Lovo) was 120 µM, the IC50 (Hela) was 50 µM and the IC50 (Bel-7402) was 80 µM. For the same compound, the MTD at 2 weeks (in vivo) was 240 mg/kg, the IC50 (BGC-823) was 70 µM and the “Body weight … end, First time” value (Lewis lung cancer; Dosage 50 (mg/ml)) was 24.1 g. For the same compound, the “Body weight … end, Second time” value (Lewis lung cancer; Dosage 50 (mg/ml)) was 25.2 g, the “Body weight of the animals, beginning, First time” value (Lewis lung cancer; Dosage 50, ip × 10qd) was 19.0 g and the “Inhibition rate, First time” value (Lewis lung cancer; Dosage 50, ip × 10qd) was 27.09%. For the same compound, the “Weight of the tumor X ± SD, First time” value (Lewis lung cancer; Dosage 50, ip × 10qd) was 1.83 ± 0.11 g, the “Body weight of the animals, beginning, Second time” value (Lewis lung cancer; Dosage 50, ip × 10qd) was 19.7 g and the “Inhibition rate, Second time” value (Lewis lung cancer; Dosage 50, ip × 10qd) was 30.93%. The “Weight of the tumor X ± SD, Second time” value (Lewis lung cancer; Dosage 50, ip × 10qd) was 1.63 ± 0.16 g, the “Body weight … end, First time” value (Lewis lung cancer; Dosage 100 (mg/ml)) was 24.2 g and the “Body weight … end, Second time” value (Lewis lung cancer; Dosage 100 (mg/ml)) was 24.7 g. The “Body weight of the animals, beginning, First time” value (Lewis lung cancer; Dosage 100, ip × 10qd) was 18.5 g, the “Inhibition rate, First time” value (Lewis lung cancer; Dosage 100, ip × 10qd) was 35.06% and the “Weight of the tumor X ± SD, First time” value (Lewis lung cancer; Dosage 100, ip × 10qd) was 1.63 ± 0.11 g. For the same compound, the “Body weight of the animals, beginning, Second time” value (Lewis lung cancer; Dosage 100, ip × 10qd) was 19.4 g, the “Inhibition rate, Second time” value (Lewis lung cancer; Dosage 100, ip × 10qd) was 37.29% and the “Weight of the tumor X ± SD, Second time” value (Lewis lung cancer; Dosage 100, ip × 10qd) was 1.48 ± 0.15 g. The “Inhibition rate (%) Lewis cancer” value (Lewis lung cancer) was 37.29%, the ΔTm (CT-DNA; [3]) was 1.5 °C and the ΔTm (CT-DNA; CT-DNA thermal denaturation) was 1.5 °C.

From patent US20090227619A1, “Harmine derivatives, intermediates used in their preparations, preparation processes and use therefo” (priority 2003, published 2009)
